20 compounds from PubChem BioAssay AID330 (DTP/NCI, 2004) can be followed below.

Values joined by “and” are separate entries in the source; they are usually repeats but may differ in a detail not shown here. Equal values may be shown once. Inconclusive results and toxic doses are left out.

The experiment concerns P388 leukemia ip, CD2F1 mice, survival T/C. The experiment is described as follows: NCI In Vivo Anticancer Drug Screen. Data for tumor model P388 Leukemia (intraperitoneal) in CD2F1 (CDF1) mice. The conditions noted are these: endpoint: median survival time, higher = longer survival. A digest of the protocol:
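Mice carrying the transplanted tumor received test compound or vehicle. Survival was recorded in each group, and the value is the treated-group measurement divided by that of the vehicle-treated control group.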

[1] abbreviates: dose: 12.5 mg/kg/injection, schedule: Q01DX009 (ip), vehicle: saline with Tween-80.
[2] abbreviates: dose: 25.0 mg/kg/injection, schedule: Q01DX009 (ip), vehicle: saline with Tween-80.
Where [3] appears, read: dose: 50.0 mg/kg/injection, schedule: Q01DX009 (ip), vehicle: saline with Tween-80.
The mark [4] stands for this setting: dose: 100.0 mg/kg/injection, schedule: Q01DX009 (ip), vehicle: saline with Tween-80.
Where [5] appears, read: dose: 200.0 mg/kg/injection, schedule: Q01DX009 (ip), vehicle: saline with Tween-80.
Setting [6] is: dose: 60.0 mg/kg/injection, schedule: Q01DX005 (ip), vehicle: Klucel (hydroxypropylcellulose) (HPC).
Where [7] appears, read: dose: 120.0 mg/kg/injection, schedule: Q01DX005 (ip), vehicle: Klucel (hydroxypropylcellulose) (HPC).
[8] abbreviates: dose: 50.0 mg/kg/injection, schedule: Q01DX009 (ip), vehicle: saline.
Where [9] appears, read: dose: 100.0 mg/kg/injection, schedule: Q01DX009 (ip), vehicle: saline.
The mark [10] stands for this setting: dose: 12.5 mg/kg/injection, schedule: Q01DX005 (ip), vehicle: saline with Tween-80.
Where [11] appears, read: dose: 25.0 mg/kg/injection, schedule: Q01DX005 (ip), vehicle: saline with Tween-80.

`COC(CCC(C)C1OC23CC(OC(=O)CC(C(C)O)OC(=O)CC(O)(O2)C(C)CC3(C)C)C1C)c1cccc(O)c1` (centres undefined): the T/C (dose: 3.12 micrograms/kg/injection, schedule: Q01DX009 (ip), vehicle: saline + Tween-80 + alcohol) was 101 % of control; the T/C (dose: 6.25 micrograms/kg/injection, schedule: Q01DX009 (ip), vehicle: saline + Tween-80 + alcohol) was 107 % of control and 109 % of control and 86 % of control; the T/C (dose: 12.5 micrograms/kg/injection, schedule: Q01DX009 (ip), vehicle: saline + Tween-80 + alcohol) is 108 % of control; the T/C (dose: 25.0 micrograms/kg/injection, schedule: Q01DX009 (ip), vehicle: saline + Tween-80 + alcohol) is 111 % of control and 117 % of control; the T/C (dose: 50.0 micrograms/kg/injection, schedule: Q01DX009 (ip), vehicle: saline + Tween-80 + alcohol) was 115 % of control and 117 % of control.
Consider `COc1cccc(CN2CCN(/N=C/c3c4c(O)c5c(O)c(C)c6c(c5c3O)C(=O)C(C)(O/C=C/C(OC)C(C)C(OC(C)=O)C(C)C(O)C(C)C(O)C(C)/C=C/C=C(C)C(=O)N4)O6)CC2)c1` (centres undefined), for which the T/C runs as follows: under setting [1], 120 % of control; under setting [2], 118 % of control; under setting [3], 112 % of control and 117 % of control; under setting [4], 121 % of control.
As to `NC(CCC(=O)O)(C(=O)O)c1ccccc1` (centres undefined), the T/C by setting is: (dose: 0.19 mg/kg/injection, schedule: Q01DX009 (ip), vehicle: saline) 101 % of control; (dose: 0.38 mg/kg/injection, schedule: Q01DX009 (ip), vehicle: saline) 104 % of control; (dose: 0.75 mg/kg/injection, schedule: Q01DX009 (ip), vehicle: saline) 100 % of control; (dose: 1.5 mg/kg/injection, schedule: Q01DX009 (ip), vehicle: saline with Tween-80) 98 % of control; (dose: 1.5 mg/kg/injection, schedule: Q01DX009 (ip), vehicle: saline) 109 % of control; (dose: 3.0 mg/kg/injection, schedule: Q01DX009 (ip), vehicle: saline with Tween-80) 98 % of control. Further, the T/C by setting is: under setting [4], 92 % of control; under setting [5], 93 % of control.
`CNC(=O)SC1=NS(=O)(=O)c2ccc(Cl)cc2N1`: the T/C under setting [6] was 110 % of control and the T/C under setting [7] was 107 % of control.
As to `COc1cc([N+](=O)[O-])cc2c1OC1(SC(C)(C)C(C)CN1C)C(C)=C2` (centres undefined), the T/C by setting is: (dose: 100.0 mg/kg/injection, schedule: Q04DX003 (ip), vehicle: saline with Tween-80) 105 % of control; (dose: 200.0 mg/kg/injection, schedule: Q04DX003 (ip), vehicle: saline with Tween-80) 100 % of control; (dose: 400.0 mg/kg/injection, schedule: Q04DX003 (ip), vehicle: saline with Tween-80) 95 % of control.
`C=C(C)C1C2CC3(C)C4(CO4)C4OC4C3(O)C1C(=O)O2` (centres undefined): the T/C (dose: 0.31 mg/kg/injection, schedule: Q01DX005 (ip), vehicle: Klucel (hydroxypropylcellulose) (HPC)) is 97 % of control; the T/C (dose: 0.62 mg/kg/injection, schedule: Q01DX005 (ip), vehicle: Klucel (hydroxypropylcellulose) (HPC)) was 100 % of control; the T/C (dose: 1.25 mg/kg/injection, schedule: Q01DX005 (ip), vehicle: Klucel (hydroxypropylcellulose) (HPC)) was 102 % of control.
`CC1=C(C#N)C(C)(C)C(C#N)=C(C)N1`: the T/C was 108 % of control (dose: 12.5 mg/kg/injection, schedule: Q01DX009 (ip), vehicle: other); 106 % of control (dose: 25.0 mg/kg/injection, schedule: Q01DX009 (ip), vehicle: other); 92 % of control (dose: 50.0 mg/kg/injection, schedule: Q01DX009 (ip), vehicle: other).
As for `CCc1c(C)[nH]n(C(N)=NCCSCc2nc[nH]c2C)c1=O`, the T/C by setting is: under setting [6], 108 % of control; under setting [7], 100 % of control; (dose: 240.0 mg/kg/injection, schedule: Q01DX005 (ip), vehicle: Klucel (hydroxypropylcellulose) (HPC)) 91 % of control.
As to `Nc1ncc[nH]c1=O`, the T/C by setting is: under setting [8], 100 % of control; under setting [9], 97 % of control.
On to `N#Cc1c(-c2ccc(Cl)c(Cl)c2)c(-c2ccc(Cl)c(Cl)c2)nn(CCO)c1=O`, for which the T/C runs as follows: (dose: 25.0 mg/kg/injection, schedule: Q04DX002 (ip), vehicle: distilled water + Tween-80) 95 % of control; (dose: 50.0 mg/kg/injection, schedule: Q04DX002 (ip), vehicle: distilled water + Tween-80) 93 % of control; (dose: 100.0 mg/kg/injection, schedule: Q04DX002 (ip), vehicle: distilled water + Tween-80) 93 % of control; (dose: 200.0 mg/kg/injection, schedule: Q04DX002 (ip), vehicle: distilled water + Tween-80) 87 % of control.
As to `COc1ccccc1CN1CC(C)N(N=Cc2c3c(O)c4c(O)c(C)c5c(c4c2O)C(=O)C(C)(O/C=C/C(OC)C(C)C(OC(C)=O)C(C)C(O)C(C)C(O)C(C)/C=C/C=C(\C)C(=O)N3)O5)C(C)C1` (centres undefined), the T/C under setting [3] is 102 % of control, the T/C under setting [4] is 107 % of control and the T/C under setting [5] was 117 % of control.
Consider `COc1ccc(C2c3cc(OC(C)=O)c(OC)cc3Oc3cc(OC)c(OC(C)=O)cc32)cc1`, for which the T/C runs as follows: (dose: 50.0 mg/kg/injection, schedule: Q01DX005 (ip), vehicle: Klucel (hydroxypropylcellulose) (HPC)) 96 % of control; (dose: 100.0 mg/kg/injection, schedule: Q01DX005 (ip), vehicle: Klucel (hydroxypropylcellulose) (HPC)) 93 % of control; (dose: 200.0 mg/kg/injection, schedule: Q01DX005 (ip), vehicle: Klucel (hydroxypropylcellulose) (HPC)) 87 % of control.
For the compound `CC1=NCCN1CCNC(=O)c1ccc(C(=O)NCCN2CCN=C2C)cc1`, the T/C was 105 % of control (dose: 1.88 mg/kg/injection, schedule: Q01DX005 (ip), vehicle: saline with Tween-80); 100 % of control (dose: 3.75 mg/kg/injection, schedule: Q01DX005 (ip), vehicle: saline with Tween-80); 100 % of control and 115 % of control (dose: 7.5 mg/kg/injection, schedule: Q01DX005 (ip), vehicle: saline with Tween-80).
With `CNC(=O)c1nn(C)c(=O)[nH]c1=O`, the T/C runs as follows: (dose: 50.0 mg/kg/injection, schedule: Q01DX005 (ip), vehicle: saline) 97 % of control; (dose: 100.0 mg/kg/injection, schedule: Q01DX005 (ip), vehicle: saline) 103 % of control; (dose: 200.0 mg/kg/injection, schedule: Q01DX005 (ip), vehicle: saline) 96 % of control.
Take `CN=C(NC)c1ccc(NC(=O)Nc2cccc(NC(=O)Nc3ccc(C(=NC)NC)cc3)c2)cc1`: the T/C was 160 % of control and 177 % of control under setting [10]; 195 % of control and 206 % of control under setting [11].
For `Nc1nc(N)c2ncn(-c3ccc(Cl)c(Cl)c3)c2n1`, the T/C was 101 % of control (dose: 50.0 mg/kg/injection, schedule: Q01DX005 (ip), vehicle: saline with Tween-80); 97 % of control (dose: 100.0 mg/kg/injection, schedule: Q01DX005 (ip), vehicle: saline with Tween-80); 106 % of control (dose: 200.0 mg/kg/injection, schedule: Q01DX005 (ip), vehicle: saline with Tween-80).
Consider `CN(C)CCCC1(c2ccccc2)SC(C)(C)c2ccc(Cl)cc21` (centres undefined), for which the T/C is 102 % of control (dose: 25.0 mg/kg/injection, schedule: Q01DX001 (ip), vehicle: Klucel (hydroxypropylcellulose) (HPC)) and 100 % of control (dose: 50.0 mg/kg/injection, schedule: Q01DX001 (ip), vehicle: Klucel (hydroxypropylcellulose) (HPC)).
With `N#CC(C#N)=Cc1cc2c3c(c1)CCCN3CCC2`, the T/C by setting is: (dose: 100.0 mg/kg/injection, schedule: Q01DX001 (ip), vehicle: saline with Tween-80) 100 % of control; (dose: 200.0 mg/kg/injection, schedule: Q01DX001 (ip), vehicle: saline with Tween-80) 100 % of control; (dose: 400.0 mg/kg/injection, schedule: Q01DX001 (ip), vehicle: saline with Tween-80) 90 % of control.
For the compound `C=C(C)C(=O)Nc1ccc(NC(C)C)cc1`, the T/C reads like this: under setting [1], 115 % of control; (dose: 12.5 mg/kg/injection, schedule: Q01DX009 (ip), vehicle: saline) 105 % of control; under setting [2], 108 % of control; (dose: 25.0 mg/kg/injection, schedule: Q01DX009 (ip), vehicle: saline) 97 % of control; under setting [3], 93 % of control and 96 % of control; under setting [8], 90 % of control. Further, the T/C under setting [9] is 102 % of control.
Consider `CCOC(=O)C1=CNc2c(C#N)cnn2C1(C(=O)OCC)c1cn(C)c2ccccc12` (centres undefined), for which the T/C by setting is: (dose: 6.25 mg/kg/injection, schedule: Q01DX005 (ip), vehicle: saline with Tween-80) 99 % of control; under setting [10], 95 % of control; under setting [11], 87 % of control.
